From patent publication US7144893B2, “4-aryl quinols and analogs thereof as therapeutic agents” (Cancer Research Technology Limited, priority 2001, dated 2006)
In brackets after ≈: the same amount, converted by molar mass.

How the values were obtained:
HT29 colon carcinoma = test: Growth inhibitory assay (MTT, 72 hr); format: cell-based; conditions: Homo sapiens, HT-29, 72 hr exposure
Experimental: (§1) Compounds were prepared as 10 mM top stocks, dissolved in DMSO, and stored at 4° C., protected from light, for a maximum period of 4 weeks. Human derived cell lines (HCT 116, HT29 colon carcinoma; MCF-7 (ER+), MDA 468 (ER−) breast carcinoma; A549 lung adenocarcinoma) were routinely cultivated at 37° C. in an atmosphere of 5% CO2 in RPMI 1640 medium supplemented with 2 mM L-glutamine and 10% fetal calf serum and subcultured twice weekly to maintain continuous logarithmic growth. Cells were seeded into 96-well microtiter plates at a density of 5×10^3 per well and allowed 24 hr to adhere before drugs were introduced (final concentration 0.1 nM–100 μM, n=8). Serial drug dilutions were prepared in medium immediately prior to each assay. At the time of drug addition and following 72 hr exposure, MTT was added to each well (final concentration 400 µg/mL). Incubation at 37° C. for 4 hr allowed reduction of MTT by mitochondrial dehydrogenase to an insoluble formazan product. Well contents were aspirated and formazan solubilized by addition of DMSO:glycine buffer (pH 10.5) (4:1). Absorbance was measured using an Anthos Labtec systems plate reader at 550 nm, and used as a measure of cell viability; thus cell growth or drug toxicity was determined.

A549 lung adenocarcinoma = test: Growth inhibitory assay (MTT, 72 hr); format: cell-based; conditions: Homo sapiens, 72 hr exposure
Experimental: as §1

HCT 116 colon carcinoma = test: Growth inhibitory assay (MTT, 72 hr); format: cell-based; conditions: Homo sapiens, 72 hr exposure
Experimental: as §1

[1] = system: 60 human cancer cell lines; test: cells; format: cell-based; conditions: Homo sapiens; for CC50: 48 h, read-out: mean LC50
Experimental: (§2) Compounds were tested for in vitro activity (48 h drug exposure) across 60 human cancer cell lines through the National Cancer Institute (NCI) Developmental Therapies Screening Program (Boyd et al., 1995).

colon sub-panel = test: cells; format: cell-based; conditions: Homo sapiens, SW-620, read-out: mean LC50 in colon sub-panel
Experimental: as §2

renal sub-panel = test: cells; format: cell-based; conditions: Homo sapiens, 60 cell, read-out: mean LC50 in renal sub-panel
Experimental: as §2

[2] = system: Mycobacterium tuberculosis H37Rv (ATCC 27294); test: Microplate Alamar Blue Assay (MABA), TAACF primary screening; format: cell-based; conditions: lowest concentration effecting a reduction in fluorescence of 90% relative to controls
Source text: Compounds were submitted to the Tuberculosis Antimicrobial Acquisition and Coordinating Facility (TAACF) for testing as antimycobacterial drugs.
Compounds were subjected to in vitro evaluation for antimycobacterial activity.
See, for example, Collins et al., 1997.

[3] = system: MCF-7 (ER+) breast carcinoma; test: Growth inhibitory assay (MTT, 72 hr); format: cell-based; conditions: Homo sapiens, MCF7, 72 hr exposure
Experimental: as §1

[4] = system: MDA 468 (ER−) breast carcinoma; test: Growth inhibitory assay (MTT, 72 hr); format: cell-based; conditions: Homo sapiens, 72 hr exposure
Experimental: as §1

[5] = mean over NCI 60 cell panel, 48 h drug exposure

O=C1C=CC(O)(c2cc3ccccc3s2)C=C1 [Q02, 4-(Benzothiophen-2-yl)-4-hydroxy-2,5-cyclohexadien-1-one]
IC50 (HT29 colon carcinoma): 0.552 µM
IC50 (A549 lung adenocarcinoma): 2.43 µM
IC50 (HCT 116 colon carcinoma): 0.169 µM
CC50 ([1]; 60 cell): 5.75 µM
GI50 ([1]; 60 cell, Table 5): 0.55 µM
GI50 [1, 5]: 0.25 µM
LC50 (colon sub-panel): 1.69 µM
mean LC50 (renal sub-panel): 1.4 µM

O=C1C=CC(O)(c2nc3ccccc3s2)C(Cl)=C1 (centres unmarked) [Q06, 4-(Benzothiazol-2-yl)-3-chloro-4-hydroxy-2,5-cyclohexadien-1-one]
IC50 (HT29 colon carcinoma): 26.3 µM
IC50 (HCT 116 colon carcinoma): 14.9 µM
CC50 ([1]; 60 cell): 6.31 µM
GI50 [1, 5]: 0.46 µM
LC50 (colon sub-panel): 2.31 µM
mean LC50 (renal sub-panel): 1.8 µM

O=C1C=CC(O)(c2nc3ccccc3[nH]2)C=C1 [Q07, 4-(Benzimidazol-2-yl)-4-hydroxy-2,5-cyclohexadien-1-one]
MIC [2]: 3.13 µg/mL (≈ 13.8 µM)
IC50 (HT29 colon carcinoma): 0.504 µM
IC50 (HCT 116 colon carcinoma): 0.21 µM
IC50 [3]: 0.509 µM
IC50 [4]: 0.353 µM
GI50 [1, 5]: 1.1 µM
melting point: 234 °C

O=C1C=CC(O)(c2ccc3ccccc3c2)C=C1 [Q08, 4-(Naphth-2-yl)-4-hydroxy-2,5-cyclohexadien-1-one]
IC50 (HT29 colon carcinoma): 2.5 µM
IC50 (HCT 116 colon carcinoma): 0.82 µM
IC50 [3]: 1.3 µM
IC50 [4]: 1.4 µM
CC50 ([1]; 60 cell): 11.7 µM
GI50 [1, 5]: 0.81 µM
LC50 (colon sub-panel): 6.58 µM
mean LC50 (renal sub-panel): 4.68 µM

O=C1C=CC(O)(c2cccc3ccccc23)C=C1 [Q09, 4-(Naphth-1-yl)-4-hydroxy-2,5-cyclohexadien-1-one]
IC50 (HT29 colon carcinoma): 1.36 µM
IC50 (HCT 116 colon carcinoma): 0.42 µM
IC50 [3]: 0.78 µM
IC50 [4]: 1.77 µM
CC50 ([1]; 60 cell): 25.7 µM
GI50 [1, 5]: 1.82 µM
LC50 (colon sub-panel): 12.2 µM
mean LC50 (renal sub-panel): 17 µM

O=C1C=CC(O)(c2cnc3ccccc3c2)C=C1 [Q10, 4-(Quinolin-3-yl)-4-hydroxy-2,5-cyclohexadien-1-one]
MIC [2]: 3.13 µg/mL (≈ 13.2 µM)
IC50 (HT29 colon carcinoma): 0.97 µM
IC50 (HCT 116 colon carcinoma): 0.72 µM
IC50 [3]: 0.77 µM
IC50 [4]: 1.7 µM
CC50 ([1]; 60 cell): 15.8 µM
GI50 [1, 5]: 1.07 µM
LC50 (colon sub-panel): 10.2 µM
mean LC50 (renal sub-panel): 9.66 µM

O=C1C=CC(O)(c2ccccc2)C=C1 [Q11, 4-Phenyl-4-hydroxy-2,5-cyclohexadien-1-one]
IC50 (HT29 colon carcinoma): 3.63 µM
IC50 (HCT 116 colon carcinoma): 2.22 µM
CC50 ([1]; 60 cell): 21.9 µM
GI50 [1, 5]: 2.29 µM
LC50 (colon sub-panel): 10.6 µM
mean LC50 (renal sub-panel): 16.7 µM

O=C1C=CC(O)(c2ccccn2)C=C1 [Q12, 4-(Pyridin-2-yl)-4-hydroxy-2,5-cyclohexadien-1-one]
MIC [2]: 6.25 µg/mL (≈ 33.4 µM)
IC50 (HT29 colon carcinoma): 0.46 µM
IC50 (HCT 116 colon carcinoma): 0.547 µM
IC50 [3]: 0.72 µM
IC50 [4]: 1.5 µM
CC50 ([1]; 60 cell): 20.4 µM
GI50 [1, 5]: 1.91 µM
LC50 (colon sub-panel): 6.9 µM
mean LC50 (renal sub-panel): 11.3 µM

O=C1C=CC(O)(c2cccs2)C=C1 [Q13, 4-(Thiophen-2-yl)-4-hydroxy-2,5-cyclohexadien-1-one]
MIC [2]: 6.25 µg/mL (≈ 32.5 µM)
IC50 (HT29 colon carcinoma): 1.25 µM
IC50 (HCT 116 colon carcinoma): 0.663 µM
IC50 [3]: 0.569 µM
IC50 [4]: 0.719 µM
CC50 ([1]; 60 cell): 30.9 µM
GI50 [1, 5]: 1.78 µM
LC50 (colon sub-panel): 32.5 µM
mean LC50 (renal sub-panel): 14.4 µM

O=C1C=CC(O)(c2nccs2)C=C1 [Q14, 4-(Thiazol-2-yl)-4-hydroxy-2,5-cyclohexadien-1-one]
MIC [2]: 3.13 µg/mL (≈ 16.2 µM)
IC50 (HT29 colon carcinoma): 0.719 µM
IC50 (HCT 116 colon carcinoma): 0.618 µM
CC50 ([1]; 60 cell): 14.5 µM
GI50 [1, 5]: 1.35 µM
LC50 (colon sub-panel): 6.19 µM
mean LC50 (renal sub-panel): 9.17 µM

COC1(c2ccccc2)C=CC(=O)C=C1 [Q16, 4-Methoxy-4-phenyl-2,5-cyclohexadien-1-one]
GI50 [1, 5]: 25.4 µM

CCOC1(c2nc3ccccc3s2)C=CC(=O)C=C1 [Q18, 4-(Benzothiazol-2-yl)-4-ethoxy-2,5-cyclohexadien-1-one]
melting point: 59 °C

CC(=O)OC1(c2ccccc2)C=CC(=O)C=C1 [Q21, 4-acetoxy-4-phenyl-2,5-cyclohexadien-1-one]
GI50 [1, 5]: 4.79 µM

CCSC1CC(=O)CC(SCC)C1(O)c1ccccc1 (centres unmarked) [Q22, 3,5-Di(ethylthio)-4-hydroxy-4-phenylcyclohexan-1-one]
GI50 [1, 5]: 12.6 µM

O=C1CC(Sc2ccccc2)C(O)(c2ccccc2)C(Sc2ccccc2)C1 (centres unmarked) [Q23, 4-Hydroxy-4-phenyl-3,5-di(phenylthio)-cyclohexan-1-one]
GI50 [1, 5]: 1.82 µM

O=C1CC(SCc2ccccc2)C(O)(c2ccccc2)C(SCc2ccccc2)C1 (centres unmarked) [Q24, 4-Hydroxy-4-phenyl-3,5-di[(phenyl)methylthio]-cyclohexan-1-one]
GI50 [1, 5]: 3.98 µM

O=C1CC(Sc2ccccc2)C(O)(c2nc3ccccc3s2)C(Sc2ccccc2)C1 (centres unmarked) [Q25]
MIC [2]: 1.56 µg/mL (≈ 3.36 µM)
GI50 [1, 5]: 0.59 µM

NC(CCC(=O)NC(CSC1CC(=O)C=CC1(O)c1nc2ccccc2s1)C(=O)NCC(=O)O)C(=O)O (centres unmarked) [Q28, 4-Benzothiazol-2-yl-5-S-glutathionyl-4-hydroxy-cyclohex-2-enone]
GI50 [1, 5]: 2.19 µM

COC1(c2nc3ccccc3s2)C=CC(=NS(=O)(=O)c2ccc(C)cc2)C=C1 (centres unmarked) [Q29, N-[4-methoxy-4-(benzothiazol-2-yl)cyclohexa-2,5-dienylidene]-4-methylbenzenesulphonamide]
CC50 ([1]; 60 cell): 83.2 µM
GI50 [1, 5]: 15.5 µM
LC50 (colon sub-panel): > 100 µM
mean LC50 (renal sub-panel): > 100 µM

COC1(c2nc3ccc(C)cc3s2)C=CC(=NS(=O)(=O)c2ccc(C)cc2)C=C1 (centres unmarked) [Q30, N-[4-methoxy-4-(6-methylbenzothiazol-2-yl)cyclohexa-2,5-dienylidene]4-methylbenzenesulphonamide]
CC50 ([1]; 60 cell): 19.5 µM
GI50 [1, 5]: 1.2 µM
LC50 (colon sub-panel): 9.92 µM
mean LC50 (renal sub-panel): 10.6 µM

COc1ccc2nc(C3(OC)C=CC(=NS(=O)(=O)c4ccc(C)cc4)C=C3)sc2c1 (centres unmarked) [Q31, N-[4-methoxy-4-(6-methoxybenzothiazol-2-yl)cyclohexa-2,5-dienylidene]-4-methylbenzenesulphonamide]
CC50 ([1]; 60 cell): 18.6 µM
GI50 [1, 5]: 1.91 µM
LC50 (colon sub-panel): 13.2 µM
mean LC50 (renal sub-panel): 11.2 µM

COC1(c2nc3ccc(F)cc3s2)C=CC(=NS(=O)(=O)c2ccc(C)cc2)C=C1 (centres unmarked) [Q32, N-[4-methoxy-4-(6-fluorobenzothiazol-2-yl)cyclohexa-2,5-dienylidene]-4-methylbenzenesulphonamide]
CC50 ([1]; 60 cell): 30.2 µM
GI50 [1, 5]: 1.74 µM
LC50 (colon sub-panel): 25.6 µM
mean LC50 (renal sub-panel): 19.1 µM

COC1(c2nc3c(F)cccc3s2)C=CC(=NS(=O)(=O)c2ccc(C)cc2)C=C1 (centres unmarked) [Q33, N-[4-methoxy-4-(4-fluorobenzothiazol-2-yl)cyclohexa-2,5-dienylidene]-4-methylbenzenesulphonamide]
CC50 ([1]; 60 cell): 27.5 µM
GI50 [1, 5]: 2.57 µM
LC50 (colon sub-panel): 26.9 µM
mean LC50 (renal sub-panel): 14.4 µM

O=C1C=CC(OC(=O)c2ccc([N+](=O)[O-])cc2)(c2nc3ccccc3s2)C=C1 [Q34, 4-(para-nitrobenzoyloxy)-4-(benzothiazol-2-yl)-2,5-cyclohexadien-1-one]
melting point: 138 °C

COc1ccc(C(=O)OC2(c3nc4ccccc4s3)C=CC(=O)C=C2)cc1 [Q35, 4-(para-methoxybenzoyloxy)-4-(benzothiazol-2-yl)-2,5-cyclohexadien-1-one]
melting point: 137 °C

O=C1CCC(O)(c2nc3ccccc3s2)CC1 [Q43, 4-(Benzothiazol-2-yl)-4-hydroxycyclohexanone]
CC50 ([1]; 60 cell): > 100 µM
GI50 [1, 5]: > 100 µM
LC50 (colon sub-panel): > 100 µM
mean LC50 (renal sub-panel): > 100 µM

CC1=CC(O)(c2nc3ccccc3s2)C=C(C)C1=O [Q44, 4-(benzothiazol-2-yl)-4-hydroxy-2,6-dimethylcyclohexa-2,5-dien-1-one]
CC50 ([1]; 60 cell): > 100 µM
GI50 [1, 5]: 38.2 µM
LC50 (colon sub-panel): > 100 µM
mean LC50 (renal sub-panel): > 100 µM

O=C1/C(=C\c2ccccc2)CC(O)(c2nc3ccccc3s2)C/C1=C/c1ccccc1 (centres unmarked) [Q45, 4-(benzothiazol-2-yl)-2,6-bis(phenylmethinyl)-4-hydroxycyclohexanone]
CC50 ([1]; 60 cell): 47.9 µM
GI50 [1, 5]: 2.69 µM
LC50 (colon sub-panel): 17.4 µM
mean LC50 (renal sub-panel): 37.2 µM

O=C1C=CC(O)(c2cc3ccccc3s2)c2ccccc21 (centres unmarked) [Q46, 4-Benzothiophen-2-yl-4-hydroxy-4H-naphth-1-one]
CC50 ([1]; 60 cell): 70.8 µM
GI50 [1, 5]: 2.29 µM
LC50 (colon sub-panel): > 100 µM
mean LC50 (renal sub-panel): > 100 µM

O=C1C=CC(O)(c2cc3ccccc3o2)c2ccccc21 (centres unmarked) [Q47, 4-(Benzofuran-2-yl)-4-hydroxy-4H-naphth-1-one]
CC50 ([1]; 60 cell): 7.76 µM
GI50 [1, 5]: 0.74 µM
LC50 (colon sub-panel): 7.76 µM
mean LC50 (renal sub-panel): 6.48 µM
